The source of these data is patent US20160326142A1, “PYRAZOLE CARBOXAMIDE COMPOUNDS, COMPOSITIONS AND METHODS OF USE” (Genentech, Inc., priority 2012, published 2016).

The term Ki denotes the equilibrium dissociation constant of an inhibitor or competing ligand from its target. A low value points to a stronger hold on the target.

The target of the experiment is T1, ITK (Homo sapiens, UniProt Q08881).
T1 construct: purchased Invitrogen PV3875
T1 sequence (Q08881 1-620): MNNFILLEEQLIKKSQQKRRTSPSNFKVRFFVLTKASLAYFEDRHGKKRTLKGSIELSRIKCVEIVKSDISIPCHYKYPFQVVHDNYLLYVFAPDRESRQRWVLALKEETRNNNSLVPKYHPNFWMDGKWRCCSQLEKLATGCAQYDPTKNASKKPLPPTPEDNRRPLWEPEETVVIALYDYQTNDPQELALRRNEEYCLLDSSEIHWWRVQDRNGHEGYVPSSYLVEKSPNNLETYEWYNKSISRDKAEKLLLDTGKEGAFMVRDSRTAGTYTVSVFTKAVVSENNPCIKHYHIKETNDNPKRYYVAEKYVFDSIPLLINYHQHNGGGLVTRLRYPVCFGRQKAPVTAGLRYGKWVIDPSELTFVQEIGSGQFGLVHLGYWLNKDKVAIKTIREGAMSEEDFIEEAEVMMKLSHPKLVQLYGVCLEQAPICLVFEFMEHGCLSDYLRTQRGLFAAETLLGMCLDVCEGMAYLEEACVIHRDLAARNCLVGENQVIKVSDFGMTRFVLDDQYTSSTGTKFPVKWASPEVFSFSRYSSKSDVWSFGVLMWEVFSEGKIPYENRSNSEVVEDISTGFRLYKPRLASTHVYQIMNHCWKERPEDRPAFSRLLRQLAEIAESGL
The experiment can be described thus: ITK enzyme assay (Caliper or LCMS peptide phosphorylation). It counts as biochemical. The settings on record: purified ITK (Invitrogen PV3875), 20 μM ATP, Ki by Morrison's quadratic equation. The method, boiled down: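 Purified human ITK peptide phosphorylation, quenched with EDTA (50 mM final) for Caliper LabChip separation or TCA (5% v/v final) for UPLC-MS/MS MRM quantification. Ki derived via Morrison tight-binding equation, corrected for competitive inhibition using ATP concentration relative to Km,app.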
Turning to `CC1(C)CCc2c(C(=O)Nc3cnn(C(c4cccc(S(C)(=O)=O)c4)C4CCOCC4)c3)n[nH]c2C1` (single isomer, unassigned) [Example 154b, 6,6-dimethyl-N-(1-((3-(methylsulfonyl)phenyl)(tetrahydro-2H-pyran-4-yl)methyl)-1H-pyrazol-4-yl)-4,5,6,7-tetrahydro-1H-indazole-3-carboxamide], the affinity, expressed as Ki, was 1 nM.

Molecule `N#Cc1cccc(Cn2cc(NC(=O)c3n[nH]c4c3CCCC4)cn2)c1` [Example 3, N-(1-(3-cyanobenzyl)-1H-pyrazol-4-yl)-4,5,6,7-tetrahydro-1H-indazole-3-carboxamide] showed a Ki of 31 nM.

`O=C(Nc1cnn(Cc2ccccc2)c1)c1n[nH]c2c1CC1(CC2)COC1` [Example 13, N-(1-benzyl-1H-pyrazol-4-yl)-1,4,6,7-tetrahydrospiro[indazole-5,3′-oxetane]-3-carboxamide]: the affinity corresponds to a Ki of 240 nM.

In the case of `O=C(Nc1cnn(Cc2ccccc2)c1)c1n[nH]c2c1CC(F)(F)CC2` [Example 17, N-(1-benzyl-1H-pyrazol-4-yl)-5,5-difluoro-4,5,6,7-tetrahydro-1H-indazole-3-carboxamide], the Ki worked out at 36 nM.

As for `N#Cc1cccc(Cn2cc(NC(=O)c3n[nH]c4c3CCC4)cn2)c1` [Example 20, N-(1-(3-cyanobenzyl)-1H-pyrazol-4-yl)-1,4,5,6-tetrahydrocyclopenta[c]pyrazole-3-carboxamide], the affinity, expressed as Ki, was 89 nM.

For the molecule `CC1(C)Cc2[nH]nc(C(=O)Nc3cnn(Cc4ccccc4)c3)c2C1` [Example 21, N-(1-benzyl-1H-pyrazol-4-yl)-5,5-dimethyl-1,4,5,6-tetrahydrocyclopenta[c]pyrazole-3-carb oxamide], the affinity, expressed as Ki, was 7.4 nM.

For `O=C(Nc1cnn(Cc2ccccc2)c1)c1n[nH]c2c1C1CC(C2)C1` [Example 31, N-(1-benzyl-1H-pyrazol-4-yl)-4,5,6,7-tetrahydro-1H-4,6-methanoindazole-3-carboxamide], the Ki was determined as 260 nM.

Consider `O=C(Nc1cnn(Cc2ccccc2)c1)c1n[nH]c2c1CC1CC2C1` [Example 32, N-(1-benzyl-1H-pyrazol-4-yl)-4,5,6,7-tetrahydro-1H-5,7-methanoindazole-3-carboxamide], for which the Ki amounted to 38 nM.

On to `CC1(O)CCc2c(C(=O)Nc3cnn(Cc4ccccc4)c3)n[nH]c2C1` (centres unmarked) [Example 51b, N-(1-benzyl-1H-pyrazol-4-yl)-6-hydroxy-6-methyl-4,5,6,7-tetrahydro-1H-indazole-3-carboxamide], for which the Ki is 860 nM.

Molecule `CN(C)CCC(c1ccccc1)n1cc(NC(=O)c2n[nH]c3c2CCC2(CCCO2)C3)cn1` (centres unmarked) [Example 59, N-(1-(3-(dimethylamino)-1-phenylpropyl)-1H-pyrazol-4-yl)-1′,4,4′,5,5′,7′-hexahydro-3H-spiro[furan-2,6′-indazole]-3′-carboxamide] returned a Ki of 40 nM.

`CC12Cc3[nH]nc(C(=O)Nc4cnn(C(CCS(C)(=O)=O)c5ccccc5)c4)c3CC1C2` (centres unmarked) [Example 69a, 5a-methyl-N-(1-(3-(methylsulfonyl)-1-phenylpropyl)-1H-pyrazol-4-yl)-1,4,4a,5,5a,6-hexahydrocyclopropa[f]indazole-3-carboxamide] displayed a Ki of 2 nM.

The molecule `CC1(C)Cc2[nH]nc(C(=O)Nc3cnn(Cc4ccccc4)c3)c2CCO1` [Example 71a, N-(1-benzyl-1H-pyrazol-4-yl)-7,7-dimethyl-4,5,7,8-tetrahydro-1H-oxepino[4,5-c]pyrazole-3-carboxamide] displayed a Ki of 4000 nM.

For the molecule `CC1(C)Cc2c(C(=O)Nc3cnn(Cc4ccccc4)c3)n[nH]c2CCO1` [Example 71b, N-(1-benzyl-1H-pyrazol-4-yl)-5,5-dimethyl-4,5,7,8-tetrahydro-1H-oxepino[4,5-c]pyrazole-3-carboxamide], the Ki stood at 790 nM.

In the case of `CN(C)CCn1cc(NC(=O)c2n[nH]c3c2CCC(C)(C)C3)cn1` [Example 72, N-(1-(2-(dimethylamino)ethyl)-1H-pyrazol-4-yl)-6,6-dimethyl-4,5,6,7-tetrahydro-1H-indazole-3-carboxamide], the affinity corresponds to a Ki of 78 nM.
